Data set [1] is described as follows: In vitro binding affinity against GABA receptor in house fly. On the set-up: species or system Musca domestica.
Data set [2] can be described thus: In vitro binding affinity against GABA receptor in mouse brain. It is filed as tissue-based.
Data set [3] can be described thus: Mortality percent was determined in flea; range is 50-100%. The format is ADME. Conditions: pulicinae.

SMILES strings stand for the structures. pKi: −log10 of the molar value.

With `CSc1nn(-c2c(Cl)cc(C(F)(F)F)cc2Cl)c(N)c1C#N`, the pKi in data set [1] is 8.10; in data set [2], 8.40.

As for `N#Cc1nn(-c2c(Cl)cc(C(F)(F)F)cc2Cl)c(N)c1[S+]([O-])C(F)(F)F` (stereo not drawn) [FIPRONIL], the Mortality in data set [3] is 50%.

One may read the pKi as the negative decadic logarithm of the Ki, by convention in mol/L.
